Test: Partition coefficient of compound in octanol and water by Fragmental method of Leo/Hansch
Type: physicochemical

logP	SMILES
3.39	Cc1cc(O)c2c(c1)C(=O)c1cccc(O)c1C2=O [CHRYSOPHANOL]
3.65	COc1cc(O)c2c(c1)C(=O)c1cc(C)cc(O)c1C2=O [PHYSCION]
2.37	O=C(O)c1cc(O)c2c(c1)C(=O)c1cccc(O)c1C2=O [RHEIN]

SMILES	logP
O=C1c2cccc(O)c2C(=O)c2c(O)cc(CO)cc21 [ALOE-EMODIN]	2.62
Cc1cc(O)c2c(c1)C(=O)c1cc(O)cc(O)c1C2=O [EMODIN]	2.87

Source: ChEMBL document CHEMBL1136579, “Determination of active components in rhubarb and study of their hydrophobicity by micellar electrokinetic chromatography” (Bioorg Med Chem Lett, 2003)
